The structures appear in SMILES notation. Structures can show the parent of a compound that is named as a salt.

Here are results for 14 compounds from patent US6908930B2, “4-substituted 7-AZA-indolin-2-ones and their use as protein kinase inhibitors” (Sugen, Inc., priority 1999, dated 2005).

For one assay, the target named is T1, PDGFR (Homo sapiens, UniProt P09619).
T1 construct: expressed in transfected cells; host or cells: NIH3T3
In words: Assay for modulation of PDGFR activity (ELISA). The settings on record: for IC50: read-out: bio PDGFR IC50. The class given is biochemical. The method, then:
Using the following reagents, supplies, and methods, the ability of the compounds of the invention to modulate the in vitro activity of the PDGFR can be readily determined in an enzyme-linked immunosorbent assay (ELISA).
Monoclonal anti-PDGFR antibody (28D4C10) is stored at −20° C. in 50 mL tubes prior to use.
Lysates from PDGFR-β expressing NIH3T3 cells are obtained and stored at −80° C. in 1 mL aliquots. PDGFR-β expression in eukaryotic cells is well known in the art. Lysates are prepared by the following method. Place carrier dishes in ice trays, and after cooling, remove the media and replace with ice cold PBS. Remove the PBS and repeat. […] Take up lysate with a pipettor and add to a 30 mL centrifuge tube on ice. Vortex the tubes for 30-60 seconds and then centrifuge for 10 minutes at 7000 rpm in a J-20 rotor which has been precooled to below 0° C. Recover the supernatants and combine them in a 250 mL tube and place on ice. Perform protein determination to measure the total quantity of protein per mL of solution. Aliquot the lysate into 1 mL fractions and store at −80° C.
Coat Corning 96 well ELISA plates with 0.5 μg per well 28D4C10 antibody in a volume of 100 μl PBS overnight, at 4° C. and remove unbound antibody, 28D4C10, from wells by inverting plate to remove liquid. Wash 1× with distilled H2O by filling wells. Pat the plate on a paper towel to remove excess liquid.
Add 150 μL of Blocking Buffer to each well. Incubate for 30 minutes at room temperature, with shaking and wash plate 3× with deionized water, then once with TBST. Pat plate on a paper towel to remove excess liquid and bubbles
Dilute lysate in PBS (10 mg lysate/100 μL PBS). Add 100 μL of diluted lysate to each well. Shake at room temperature for 60 min. Wash plate 3× with deionized water, then once with TBST. Pat plate on a paper towel to remove excess liquid and bubbles.
Add 80 μL Kinase Buffer to ELISA plate containing captured PDGFR.
Dilute drugs/extracts 1:10 (unless specified otherwise) in TBS+10% DMSO in 96-well polypropylene plates. (i.e., 10 μL compound+90 μL (TBS+10% DMSO)). Add 10 μL diluted drugs/extracts to ELISA plate. […] Incubate for 30 minutes while shaking at room temperature.
After 30 minutes stop reaction with addition of 10 μL of 200 mM EDTA pH 8.0 for 20 mM final in well. Wash 4× with deionized water, twice with TBST.
Incubate 30-45 minutes at room temperature, with shaking. Wash plate 3× with deionized water, then once with TBST. Pat plate on a paper towel to remove excess liquid and bubbles.
Incubate 30 minutes at room temperature with shaking. Wash plate 3× with deionized water, then once with TBST. Pat plate on a paper towel to remove excess liquid and bubbles.
Add 100 μL of ABTS/H2O2 solution to each well. Incubate 10 to 30 minutes while shaking. Remove any bubbles. If necessary stop reaction with the addition of 100 μL of 0.2M HCl per well
Read assay on Dynatech MR7000 ELISA reader.
(In general: An ELISA detects its analyte on a solid surface through an enzyme-linked reagent.)

The next assay concerns the target T2, HER-2 (Homo sapiens, UniProt P04626).
T2 construct: expressed in mouse 3T3 (clone C7) cells; P00533 (Epidermal growth factor receptor)
The assay can be described thus: Assay for modulation of HER-2 activity in whole cells (ELISA). The class given is cell-based. The settings on record: EGFR/HER-2chimera/#T3-C7 cell lines, EGF stimulated; read-out: HER-2 kinase IC50. The method, then:
Using the following reagents, supplies, and method, the ability of compounds of the invention to affect the activity of HER-2 in whole cells in an ELISA format can be assigned.
EGFR/HER-2chimera/#T3-C7 cell lines are used for this assay. Choose dishes having 80-90% confluence for the experiment. Collect cells by trypsinization and centrifuge at 1000 rpm at room temperature for 5 minutes.
Resuspend cells in starve medium and count with trypan blue. Only viability above 90% is acceptable. Seed cells in starve medium at a density of 2,500 cells per well, 90 μL per well, in a 96 well microtiter plate. Incubate seeded cells in 5% CO2 at 37° C. overnight. Start the assay two days after seeding.
Samples are diluted directly into a polypropylene plate containing starve-DMEM (non-sterile is okay). This dilution will be 1:10 or greater, depending on the samples being screened. The same amount of DMSO is put into the control wells. […] are then transferred to the cell plate at a 1:10 dilution (10 μL of sample and media into 90 μL of starve media). The final DMSO concentration will be 1% or lower.
Ten samples are put into wells 2-11 of row A of the NUNC 96 well polypropylene plate. These wells contain straight starve-DMEM. For a 1:10 dilution, one would put 10 μL of drug into 90 μL of media. The rest of the wells (including the controls) will have a DMSO/media mixture. The percentage of DMSO in this mixture is determined by the first dilution factor, in this case 1:10. The DMSO concentration is therefore 10%. An equal amount of drug and media from row A is put into row B, containing DMSO and media. The same amount is then taken out and put into row C. This is repeated for all rows. These are 1:2 dilutions. All wells are then transferred to the cell plate at a 1:10 dilution (10 μL of sample and media into 90 μL of starve-DMEM. The final DMSO concentration will be 1% or lower. […]
After a 2 hour incubation with the drug, add prepared EGF ligand to cells at 50 μL per well, for a final concentration of 50 nM. Positive control wells (8) receive the same amount of EGF. […] Incubate at 37° C. for 10 minutes.
Remove drug, EGF, and DMEM by dumping in sink. Wash cells once with PBS.
Transfer HNTG* to cells, 100 μL per well. Place on ice for 5 minutes. Meanwhile, remove blocking buffer from ELISA plate and wash as described above. With a pipette tip securely fitted to a micropipettor, scrape cells from plate and homogenize cell material by repeatedly aspirating and dispensing the HNTG* lysis buffer. Transfer lysate to a coated, blocked, washed ELISA plate. Alternatively, one may use a Costar transfer cartridge to transfer lysate to the ELISA plate. Incubate, shaking, at room temperature for one hour.
Remove lysate by dumping in sink, then wash as described earlier. Transfer freshly diluted anti-phosphotyrosine (anti-Ptyr) antibody (1:3000 in TEST) to ELISA plate, 100 μL per well. Incubate, shaking, at room temperature, for 30 minutes.
Remove anti-Ptyr antibody by dumping in sink, then wash as described earlier. Transfer freshly diluted BIOSOURCE antibody to ELISA plate, (1:8000 in TEST), 100 μL per well. Incubate, shaking, at room temperature for 30 minutes.
Remove BIOSOURCE antibody by dumping in sink, then wash as described earlier. Transfer freshly prepared ABTS/H2O2 solution to ELISA plate, […]. Incubate 5-10 minutes while shaking. Remove any bubbles and if necessary, stop reaction with the addition of 100 μL of 0.2 M HCl per well.
Read assay on Dynatech MR7000 ELISA reader. Test Filter: […]; Reference Filter: […]. A preferred template for the placement of controls in this experiment is provided below: […]

T1 sequence (P09619 33-1106, species assumed): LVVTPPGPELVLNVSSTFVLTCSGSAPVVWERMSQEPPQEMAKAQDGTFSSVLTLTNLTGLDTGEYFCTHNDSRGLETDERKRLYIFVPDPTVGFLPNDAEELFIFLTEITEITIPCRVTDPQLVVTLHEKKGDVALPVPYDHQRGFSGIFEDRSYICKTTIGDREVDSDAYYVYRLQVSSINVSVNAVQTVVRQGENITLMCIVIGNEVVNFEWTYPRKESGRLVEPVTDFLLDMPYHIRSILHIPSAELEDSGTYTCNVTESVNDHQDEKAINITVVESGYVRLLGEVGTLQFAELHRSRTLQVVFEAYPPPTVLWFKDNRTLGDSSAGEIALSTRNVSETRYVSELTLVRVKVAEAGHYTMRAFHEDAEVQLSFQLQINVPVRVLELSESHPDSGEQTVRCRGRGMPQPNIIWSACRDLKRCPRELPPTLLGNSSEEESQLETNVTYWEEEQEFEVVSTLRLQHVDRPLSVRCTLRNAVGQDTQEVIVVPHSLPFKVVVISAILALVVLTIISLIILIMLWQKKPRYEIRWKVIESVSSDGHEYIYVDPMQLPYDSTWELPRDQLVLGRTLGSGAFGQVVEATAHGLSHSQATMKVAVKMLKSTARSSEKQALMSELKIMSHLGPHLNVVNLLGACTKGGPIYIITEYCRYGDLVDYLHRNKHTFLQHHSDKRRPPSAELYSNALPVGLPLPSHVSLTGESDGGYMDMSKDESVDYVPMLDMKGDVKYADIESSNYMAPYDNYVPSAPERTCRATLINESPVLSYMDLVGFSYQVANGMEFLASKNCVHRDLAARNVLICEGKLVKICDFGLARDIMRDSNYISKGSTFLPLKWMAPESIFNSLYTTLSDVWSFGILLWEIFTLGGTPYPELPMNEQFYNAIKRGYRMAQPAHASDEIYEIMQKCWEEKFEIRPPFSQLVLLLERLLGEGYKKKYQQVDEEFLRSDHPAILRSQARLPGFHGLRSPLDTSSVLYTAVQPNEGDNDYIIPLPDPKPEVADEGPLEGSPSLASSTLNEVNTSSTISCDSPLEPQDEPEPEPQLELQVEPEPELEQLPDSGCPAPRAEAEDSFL
T2 sequence (P04626 720-987 limits assumed): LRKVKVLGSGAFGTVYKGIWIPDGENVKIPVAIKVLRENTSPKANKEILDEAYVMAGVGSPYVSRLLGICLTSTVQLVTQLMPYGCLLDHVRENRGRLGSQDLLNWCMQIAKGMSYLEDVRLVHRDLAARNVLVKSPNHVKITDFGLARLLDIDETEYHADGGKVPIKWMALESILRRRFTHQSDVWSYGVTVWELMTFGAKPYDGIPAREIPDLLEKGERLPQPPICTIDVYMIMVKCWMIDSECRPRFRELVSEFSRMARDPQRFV

In the case of `Cc1cc(C(=O)NCCN2CCOCC2)[nH]c1C=C1C(=O)Nc2nccc(Nc3ccc(F)c(Cl)c3)c21` [Formula 3, 5-[4-(3-CHLORO-4-FLUORO-PHENYLAMINO)-2-OXO-1,2-DIHYDRO-PYRROLO[2,3-B]PYRIDIN-3-YLIDENEMETHYL]-4-METHYL-1H-PYRROLE-2-CARBOXYLIC ACID (2-MORPHOLIN-4-YL-ETHYL)-AMIDE], the values for the IC50 on PDGFR and at HER-2 were more than 100 µM and 0.272 µM, respectively.

On to `Cc1cc(C(=O)NCCN2CCOCC2)[nH]c1C=C1C(=O)Nc2ncnc(Nc3ccc(F)c(Cl)c3)c21` [Formula 4, 5-[4-(3-CHLORO-4-FLUORO-PHENYLAMINO)-6-OXO-6,7-DIHYDRO-PYRROLO[2,3-D]PYRIMIDIN-5-YLIDENEMETHYL]-4-METHYL-1H-PYRROLE-2-CARBOXYLIC ACID (2-MORPHOLIN-4-YL-ETHYL)-AMIDE HYDROCHLORIDE], for which the IC50 was more than 100 µM on PDGFR and 0.16 µM at HER-2.

On to `O=C1Nc2ncnc(N3CCCCC3)c2C1=Cc1ccc(C(=O)NCCN2CCOCC2)[nH]1` [Formula 5, 5-(6-OXO-4-PIPERIDIN-1-YL-6,7-DIHYDRO-PYRROLO[2,3-D]PYRIMIDIN-5-YLIDENEMETHYL)-1H-PYRROLE-2-CARBOXYLIC ACID (2-MORPHOLIN-4-YL-ETHYL)-AMIDE], for which the half-inhibitory concentration (IC50) on PDGFR was more than 100 µM; on HER-2, 61.2 µM.

On to `Cc1cc(C(=O)NCCN2CCOCC2)[nH]c1C=C1C(=O)Nc2ncnc(Nc3ccc4c(ccn4Cc4ccccc4)c3)c21.Cl` [Formula 6, 5-[4-(1-BENZYL-1H-INDOL-5-YLAMINO)-6-OXO-6,7-DIHYDRO-PYRROLO[2,3-D]PYRIMIDIN-5-YLIDENEMETHYL]-4-METHYL-1H-PYRROLE-2-CARBOXYLIC ACID (2-MORPHOLIN-4-YL-ETHYL)-AMIDE HYDROCHLORIDE], for which the “effect on the activity of PDGFR (in words)” value on PDGFR (hydrochloride salt) was “relatively little effect on the activity of PDGFR”. Moreover, the concentration for half-maximal inhibition (IC50) was more than 100 µM at PDGFR and 0.13 µM on HER-2.

Take `Cc1[nH]c(C=C2C(=O)Nc3ncnc(Nc4ccc(F)c(Cl)c4)c32)c(C)c1CCCN1CCOCC1` [Formula 7, 4-(3-CHLORO-4-FLUORO-PHENYLAMINO)-5-[3,5-DIMETHYL-4-(3-MORPHOLIN-4-YL-PROPYL)-1H-PYRROL-2-YLMETHYLENE]-5,7-DIHYDRO-PYRROLO[2,3-D]PYRIMIDIN-6-ONE HYDROCHLORIDE]: the IC50 at PDGFR is 86 µM; on HER-2, 0.04 µM.

Take `Cc1nc[nH]c1C=C1C(=O)Nc2ncnc(Nc3ccc(F)c(Cl)c3)c21` [Formula 8]: the half-maximal inhibitory concentration (IC50) on PDGFR was 16.4 µM; at HER-2, 0.1 µM.

Consider `Cc1cc(C)c(C=C2C(=O)Nc3ncnc(Nc4ccc(F)c(Cl)c4)c32)[nH]1` [Formula 9], for which the half-inhibitory concentration (IC50) at PDGFR was more than 100 µM; at HER-2 it was 0.01 µM.

On to `Cc1cc(C(=O)NCCN2CCOCC2)[nH]c1C=C1C(=O)Nc2ncnc(N3CCN(C)CC3)c21` [Formula 10, 4-METHYL-5-[4-(4-METHYL-PIPERAZIN-1-YL)-6-OXO-6,7-DIHYDRO-PYRROLO[2,3-D]PYRIMIDIN-5-YLIDENEMETHYL]-1H-PYRROLE-2-CARBOXYLIC ACID (2-MORPHOLIN-4-YL-ETHYL)-AMIDE], for which the IC50 at PDGFR and on HER-2 was more than 100 µM throughout.

In the case of `Cc1nc[nH]c1C=C1C(=O)Nc2ncnc(N3CCN(C)CC3)c21` [Formula 11], the concentration for half-maximal inhibition (IC50) on PDGFR was 28.1 µM; on HER-2, more than 100 µM.

For the compound `O=C1Nc2ncnc(Nc3ccc4c(ccn4Cc4ccccc4)c3)c2C1=Cc1ccc(C(=O)NCCN2CCOCC2)[nH]1` [Formula 12, 5-[4-(1-BENZYL-1H-INDOL-5-YLAMINO)-6-OXO-6,7-DIHYDRO-PYRROLO[2,3-D]PYRIMIDIN-5-YLIDENEMETHYL]-1H-PYRROLE-2-CARBOXYLIC ACID (2-MORPHOLIN-4-YL-ETHYL)-AMIDE HYDROCHLORIDE], the 50% inhibitory concentration (IC50) is more than 100 µM on PDGFR and 0.28 µM at HER-2.

For the compound `O=C1Nc2ncnc(N3CCOCC3)c2C1=Cc1ccc(C(=O)NCCN2CCOCC2)[nH]1` [Formula 13, 5-(4-MORPHOLIN-4-YL-6-OXO-6,7-DIHYDRO-PYRROLO[2,3-D]PYRIMIDIN-5-YLIDENEMETHYL)-1H-PYRROLE-2-CARBOXYLIC ACID (2-MORPHOLIN-4-YL-ETHYL)-AMIDE], the IC50 on PDGFR and at HER-2 was more than 100 µM throughout.

For `Cc1nc[nH]c1C=C1C(=O)Nc2ncnc(N3CCOCC3)c21` [Formula 14], the 50% inhibitory concentration (IC50) on PDGFR and on HER-2 was more than 100 µM each time.

For the compound `O=C1Nc2ncnc(Nc3ccc(F)c(Cl)c3)c2C1=Cc1ccc(C(=O)NCCN2CCOCC2)[nH]1` [Formula 15, 5-[4-(3-CHLORO-4-FLUORO-PHENYLAMINO)-6-OXO-6,7-DIHYDRO-PYRROLO[2,3-D]PYRIMIDIN-5-YLIDENEMETHYL]-1H-PYRROLE-2-CARBOXYLIC ACID (2-MORPHOLIN-4-YL-ETHYL)-AMIDE], the IC50 at PDGFR was more than 100 µM; on HER-2, 0.13 µM.

As to `C#Cc1cccc(Nc2ncnc3c2C(=Cc2ccc(C(=O)NCCN4CCOCC4)[nH]2)C(=O)N3)c1` [Formula 16, 5-[4-(3-ETHYNYL-PHENYLAMINO)-6-OXO-6,7-DIHYDRO-PYRROLO[2,3-D]PYRIMIDIN-5-YLIDENEMETHYL]-1H-PYRROLE-2-CARBOXYLIC ACID (2-MORPHOLIN-4-YL-ETHYL)-AMIDE HYDROCHLORIDE], the IC50 at PDGFR was more than 20 µM; on HER-2, 1.02 µM.

What is called IC50 is the midpoint of a concentration-inhibition curve.
